Molecular target: Ezrin (Homo sapiens, UniProt P15311)
Experiment: SPR Assay
Settings: pH 5.5; 25 °C
Experimental: Recombinant ezrin (Hypermol) was diluted to […] in sodium acetate buffer (pH 5.5, 10 mM) immobilized for 350 s on a CM5 Sensor Chip (Biacore) by standard amine coupling to yield around 10,000 response units. The reference flow cell was prepared exactly as the ligand flow cell, although sodium acetate buffer only (pH 5.5, 10 mM) was used instead of recombinant ezrin. Binding interactions were monitored at 25 °C with a flow rate of […] in HBSEP/1% DMSO as running buffer. Disorazole A was injected at […]. Disorazole Z was injected at […]. The contact time for each compound was 120 s and the dissociation time 500 s. To rule out non-specific binding, a negative control protein was immobilized on a CM5 Sensor Chip (Biacore) by standard amine coupling: BSA (Sigma) was diluted to […] in sodium acetate buffer (pH 4.5, 10 mM) and immobilized for 90 s to yield around 5,000 response units. The reference flow cell was prepared with sodium acetate buffer (pH 4.5).

Ezrin, sequence (P15311 whole entry): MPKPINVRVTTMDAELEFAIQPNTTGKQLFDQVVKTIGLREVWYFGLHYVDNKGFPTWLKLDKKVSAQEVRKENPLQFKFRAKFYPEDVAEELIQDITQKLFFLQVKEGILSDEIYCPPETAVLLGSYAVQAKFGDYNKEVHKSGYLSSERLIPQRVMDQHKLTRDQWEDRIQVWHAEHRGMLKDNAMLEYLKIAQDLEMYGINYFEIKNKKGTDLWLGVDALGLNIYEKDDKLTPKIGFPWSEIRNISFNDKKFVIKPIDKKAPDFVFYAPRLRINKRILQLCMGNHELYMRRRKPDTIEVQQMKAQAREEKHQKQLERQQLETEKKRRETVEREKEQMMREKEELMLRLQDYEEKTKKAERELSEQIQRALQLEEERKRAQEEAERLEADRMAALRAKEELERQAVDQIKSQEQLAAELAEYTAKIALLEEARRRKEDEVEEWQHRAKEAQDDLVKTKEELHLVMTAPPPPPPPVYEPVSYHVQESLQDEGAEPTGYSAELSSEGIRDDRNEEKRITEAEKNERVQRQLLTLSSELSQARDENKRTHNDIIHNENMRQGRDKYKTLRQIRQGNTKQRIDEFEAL

Compound | Kd [µM]
C/C=C/[C@H](O)C(C)(C(=O)OC)[C@@H]1C\C=C/C=C/C=C/c2nc(co2)C(=O)O[C@H](C(C)(C(=O)OC)[C@@H](O)/C=C/C)C\C=C/C=C/C=C/c2nc(co2)C(=O)O1 (some centres not stated) [Disorazole Z] | 74.9
C/C=C/[C@H](O)C(C)(C)[C@@H]1CCC[C@H]2O[C@H]2CC[C@@H]2O[C@@H]2c2nc(co2)C(=O)O[C@H](C(C)(C)[C@@H](O)/C=C/C)C\C=C/C(C)=C\C=C/[C@H](OC)Cc2nc(co2)C(=O)O1 [Disorazole A] | 22

Reference: BindingDB's records for doi:10.1016/j.chembiol.2016.12.011 (Saarland University, 2017)
